pIC50: −log10 of the molar value.
Assay: Inverse agonist activity at RORgammat in mouse CD4 positive T cells assessed as inhibition of Th17 cell differentiation by measuring IL-17 release after 4 days by cellular staining based flow cytometry

Row | pIC50 | SMILES
1 | 5.57 | N#Cc1cccc(C(=O)Nc2ccc3c(c2)C(N2CCN(C(=O)C4CCCC4)CC2)CC3)c1 (centres undefined)
2 | 5.75 | N#Cc1cccc(C(=O)Nc2cccc3c2CCC3N2CCN(C(=O)C3CCCC3)CC2)c1 (centres undefined)
3 | 6.37 | N#Cc1cccc(C(=O)Nc2ccc3c(c2)C(N2CC4CCC(C2)N4C(=O)C2CCCC2)CC3)c1 (centres undefined)
4 | 6.41 | N#Cc1cccc(C(=O)Nc2cccc3c2CCC3N2CC3CCC(C2)N3C(=O)C2CCCC2)c1 (centres undefined)

From BindingDB's records for doi:10.1016/j.ejmech.2019.01.082 (Fudan University, 2019)
